Experimental findings from ChEMBL document CHEMBL1201862, “PubChem BioAssay data set” (2004) are described below.

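Assay format: 96-well plates, 48-hour exposure. GI50 is the concentration that inhibits growth by half.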 Active and inactive are the calls of the source. Rule as the data show it: active = GI50 up to about 1.1 µM and inactive = higher. Peptide text beside a SMILES is read from it. * marks the point of attachment. Boc = CC(C)(C)OC(=O)* A value given as a limit tells only on which side of the number the result lay.

Some test systems named below: OVCAR-3; NCI-H226; UACC-62; M14; U-251; SNB-75; K562; HCT-15; SK-MEL-5; HL-60; MOLT-4; SNB-19; HCC 2998; PC-3; A549; LOX IMVI; KM12; SK-MEL-28; OVCAR-8; HOP-92.
Holding throughout (experiment): DTP human tumour cell line panel, 48 h

As for `Cn1ccnc1Sc1ccc(/C=N/NC(=O)c2ccccc2[N+](=O)[O-])cc1[N+](=O)[O-]`, the GI50 (as a rule, the concentration at which growth is held to half of that of the control) with OVCAR-3 was 98.9 µM (inactive); in the assay on NCI-H226, > 100 µM (inactive); in the assay with UACC-62, 64.3 µM (inactive); with M14, > 100 µM (inactive); with U-251, > 100 µM (inactive); in the assay with SNB-75, > 100 µM (inactive). Moreover, the GI50 with K562 is 40.5 µM (inactive); in the assay on HCT-15 it was 45.7 µM; in the assay on SK-MEL-5, 46.1 µM (inactive); in the assay with HL-60, 47.1 µM (inactive); in the assay on MOLT-4, 41.2 µM (inactive); in the assay on SNB-19, > 100 µM (inactive). The GI50 with HCC 2998 was 36.7 µM (inactive); with PC-3, 76 µM (inactive); with A549, > 100 µM (inactive); in the assay with LOX IMVI it was 37.3 µM (inactive); in the assay with KM12, 49.9 µM (inactive); with SK-MEL-28, > 100 µM (inactive). Besides, the GI50 in the assay with OVCAR-8 is > 100 µM (inactive); in the assay with HOP-92, 18 µM (inactive).
Regarding `O=[N+]([O-])c1ccccc1S(=O)(=O)c1cc(O)cc2c1NCCC2`, the GI50 with OVCAR-3 was 7.55 µM (inactive); in the assay with NCI-H226 it was 28.1 µM (inactive); in the assay with UACC-62 it was 15.2 µM (inactive); in the assay with M14, 17 µM (inactive); in the assay with U-251, 20.2 µM (inactive); in the assay on SNB-75 it was 14.5 µM (inactive). Also, the GI50 is 2.68 µM (inactive) in the assay on K562; 19.6 µM with HCT-15; 13.9 µM (inactive) in the assay with SK-MEL-5; 3.47 µM (inactive) in the assay on HL-60; 4.23 µM (inactive) in the assay on MOLT-4; 28.5 µM (inactive) in the assay with SNB-19. Moreover, the GI50 is 25.5 µM (inactive) with HCC 2998; 14.7 µM (inactive) with PC-3; 29.8 µM (inactive) with A549; 14.2 µM (inactive) with LOX IMVI; 18.7 µM (inactive) with KM12; 18.7 µM (inactive) with SK-MEL-28. In addition, the GI50 was 11.8 µM (inactive) with OVCAR-8 and 0.612 µM (active) with HOP-92.
On to `CC(C)(C)OC(=O)NCCC1SC2C=CC1C2` (stereo not given), for which the GI50 in the assay on OVCAR-3, in the assay with NCI-H226, in the assay on UACC-62, with M14, with U-251 and with SNB-75 was > 100 µM (inactive) throughout. Moreover, the GI50 is > 100 µM (inactive) in the assay with K562; above 100 µM in the assay on HCT-15; 83.2 µM (inactive) in the assay on SK-MEL-5; > 100 µM (inactive) in the assay on HL-60; > 100 µM (inactive) with MOLT-4; > 100 µM (inactive) in the assay with SNB-19. Besides, the GI50 in the assay with HCC 2998, in the assay with PC-3, in the assay with A549, with LOX IMVI, in the assay with KM12 and in the assay with SK-MEL-28 was > 100 µM (inactive) each time. Besides, the GI50 in the assay on OVCAR-8 and in the assay on HOP-92 was > 100 µM (inactive) throughout.
`COc1ccc(/C=C2\CCCc3ccccc3C2=O)cc1`: the concentration for 50% growth inhibition (GI50) is 0.0982 µM (active) in the assay on OVCAR-3; 0.116 µM (active) in the assay with NCI-H226; 0.0292 µM (active) with UACC-62; 0.0335 µM (active) with M14; 0.508 µM (active) with U-251; 0.0649 µM (active) in the assay with SNB-75. Also, the GI50 with K562 is 0.33 µM (active); in the assay with HCT-15, 0.0723 µM; in the assay with SK-MEL-5 it was 0.102 µM (active); with HL-60, 0.279 µM (active); in the assay with MOLT-4, 1.63 µM (inactive); with SNB-19, 0.36 µM (active). The concentration for 50% growth inhibition (GI50) in the assay on HCC 2998 was 0.2 µM (active); in the assay with PC-3 it was 0.321 µM (active); in the assay on A549 it was 0.197 µM (active); in the assay on LOX IMVI, 0.179 µM (active); in the assay on KM12, 0.158 µM (active); with SK-MEL-28, 3.83 µM (inactive). In addition, the values for the GI50 in the assay with OVCAR-8 and in the assay on HOP-92 were 0.228 µM (active) and 0.893 µM (active), respectively.
Consider `COC(Cc1ccccc1)NC(C)=O` (stereo not given), for which the GI50 with OVCAR-3, with NCI-H226, with UACC-62, in the assay on M14, with U-251 and in the assay on SNB-75 was > 100 µM (inactive) in each case. Besides, the GI50 in the assay with K562 was > 100 µM (inactive); with HCT-15 it was above 100 µM; in the assay on SK-MEL-5 it was > 100 µM (inactive); with HL-60, > 100 µM (inactive); with MOLT-4 it was > 100 µM (inactive); with SNB-19, > 100 µM (inactive). Further, the GI50 in the assay on HCC 2998, in the assay on PC-3, with A549, in the assay with LOX IMVI, with KM12 and in the assay with SK-MEL-28 was > 100 µM (inactive) throughout. Moreover, the GI50 with OVCAR-8 and in the assay on HOP-92 was > 100 µM (inactive) in each case.
In the case of `C#CCOC(=O)C(N)CC(N)=O` (stereo not given), the GI50 in the assay with OVCAR-3, with NCI-H226, in the assay with UACC-62, with M14, in the assay on U-251 and with SNB-75 was > 100 µM (inactive) throughout. The GI50 is 21.2 µM (inactive) with K562; above 100 µM with HCT-15; > 100 µM (inactive) in the assay with SK-MEL-5; > 100 µM (inactive) in the assay with HL-60; > 100 µM (inactive) with MOLT-4; > 100 µM (inactive) in the assay on SNB-19. The GI50 with HCC 2998, with PC-3, with A549, in the assay with LOX IMVI, in the assay with KM12 and in the assay on SK-MEL-28 was > 100 µM (inactive) throughout. The GI50 in the assay on OVCAR-8 and with HOP-92 was > 100 µM (inactive) each time.
`CC1CCc2sc3nc(S)n(C)c(=O)c3c2C1` (stereo not given): the GI50 was 22.4 µM (inactive) in the assay with OVCAR-3; 26.7 µM (inactive) with NCI-H226; 33.7 µM (inactive) in the assay on UACC-62; 34.3 µM (inactive) in the assay on M14; 41.8 µM (inactive) in the assay on U-251; 35.9 µM (inactive) with SNB-75. Moreover, the GI50 in the assay on K562 is 42.2 µM (inactive); in the assay on HCT-15, 39.5 µM; with SK-MEL-5, 35.1 µM (inactive); with HL-60, 2.85 µM (inactive); with MOLT-4 it was 41.4 µM (inactive); in the assay with SNB-19 it was 33.8 µM (inactive). For the same compound, the GI50 with HCC 2998 is 22.2 µM (inactive); in the assay on PC-3, 25.5 µM (inactive); with A549 it was 33.6 µM (inactive); in the assay with LOX IMVI it was 33.7 µM (inactive); in the assay on KM12, 42.8 µM (inactive); with SK-MEL-28, 58.5 µM (inactive). Moreover, the GI50 with OVCAR-8 was 39.5 µM (inactive); in the assay on HOP-92 it was 17.7 µM (inactive).
As to `COc1cc(/C=C2\C(=O)N(c3cccc(NC(C)=O)c3)C(c3ccccc3)S2(=O)=O)cc(OC)c1OC` (stereo not given), the GI50 in the assay on OVCAR-3 was 56 µM (inactive); with NCI-H226 it was 67.6 µM (inactive); in the assay with UACC-62 it was 80.9 µM (inactive); in the assay with M14 it was > 100 µM (inactive); in the assay on U-251, 59.8 µM (inactive); in the assay on SNB-75 it was 62.7 µM (inactive). Further, the GI50 in the assay with K562 was 31.3 µM (inactive); in the assay on HCT-15 it was 71.4 µM; in the assay on SK-MEL-5, 39.1 µM (inactive); with HL-60, 17.5 µM (inactive); in the assay on MOLT-4, 19.8 µM (inactive); in the assay on SNB-19 it was > 100 µM (inactive). The GI50 in the assay with HCC 2998 is > 100 µM (inactive); in the assay with PC-3, 42.6 µM (inactive); with A549, > 100 µM (inactive); with LOX IMVI it was 54.2 µM (inactive); with KM12 it was 49.8 µM (inactive); in the assay with SK-MEL-28 it was 91.2 µM (inactive). For the same compound, the GI50 in the assay on OVCAR-8 is 48.2 µM (inactive); with HOP-92, > 100 µM (inactive).
`CC(NC(=O)OC(C)(C)C)C(=O)NC(Cc1ccccc1)C(=O)NCC(=O)O` (stereo not drawn) (Boc-Ala-Phe-Gly-OH; configuration not given here): the GI50 in the assay on OVCAR-3, in the assay on NCI-H226, in the assay with UACC-62, in the assay on M14, with U-251 and with SNB-75 was > 100 µM (inactive) throughout. Also, the GI50 with K562 is > 100 µM (inactive); in the assay with HCT-15, above 100 µM; in the assay on SK-MEL-5, > 100 µM (inactive); in the assay with HL-60, > 100 µM (inactive); in the assay on MOLT-4, > 100 µM (inactive); in the assay on SNB-19, > 100 µM (inactive). Moreover, the GI50 in the assay with HCC 2998, in the assay on PC-3, in the assay with A549, with LOX IMVI, in the assay on KM12 and with SK-MEL-28 was > 100 µM (inactive) in each case. The GI50 in the assay with OVCAR-8 and with HOP-92 was > 100 µM (inactive) in each case.
With `COC(=O)C1=C(C(=O)OC)C(C(=O)OC)C(C(=O)OC)C(C(=O)OC)(C(=O)OC)C(C(=O)OC)=C1C(=O)OC` (stereo not given), the GI50 with OVCAR-3 was 15.1 µM (inactive); in the assay on NCI-H226, 15.9 µM (inactive); with UACC-62, 15.5 µM (inactive); with M14, 15.1 µM (inactive); with U-251 it was 16.9 µM (inactive); in the assay with SNB-75, 19.2 µM (inactive). Besides, the GI50 in the assay on K562 was 3.4 µM (inactive); in the assay with HCT-15, 8.39 µM; with SK-MEL-5, 17.2 µM (inactive); with HL-60, 1.97 µM (inactive); with MOLT-4 it was 2.59 µM (inactive); in the assay on SNB-19, 17.6 µM (inactive). Moreover, the GI50 in the assay with HCC 2998 was 16.9 µM (inactive); with PC-3 it was 16.5 µM (inactive); with A549, 21.2 µM (inactive); in the assay with LOX IMVI, 13.5 µM (inactive); with KM12, 17.1 µM (inactive); with SK-MEL-28, 15.1 µM (inactive). The values for the GI50 with OVCAR-8 and in the assay with HOP-92 were 11.8 µM (inactive) and 6.89 µM (inactive), respectively.
